Results: ChEMBL document CHEMBL1150843, “Hortein, a new natural product from the fungus Hortaea werneckii associated with the sponge Aplysina aerophoba” (J Nat Prod, 2001)
The source made the active and inactive calls.

Assays:
Type in all cases: functional, organism-based
Staphylococcus aureus = experiment: Antibacterial activity against Staphylococcus aureus ATCC 25923 after 4 days by serial dilution test
Escherichia coli = experiment: Antibacterial activity against Escherichia coli HB101 after 4 days by serial dilution test
Candida albicans = experiment: Antifungal activity against Candida albicans after 4 days by serial dilution test
Bacillus subtilis = experiment: Antibacterial activity against Bacillus subtilis 168 after 4 days by serial dilution test; settings: subsp. subtilis str. 168
Spodoptera littoralis = experiment: Insecticidal activity against Spodoptera littoralis larvae administered through artificial diet by chronic feeding assay

Measured: Activity

O=C1CCC(=O)c2c1c(O)c(O)c1c2-c2ccc(O)c3c(O)ccc-1c23
inactive: all assays above
